Tests used:
Format in all cases: biochemical
[1] = molecular target: T1, Bovine pancreatic Trypsin (Bos taurus, UniProt P00760); experiment: Ki determination, bovine pancreatic trypsin (N-a-Benzoyl-L-Arg-pNA); conditions: 50 mM Tris-HCl, pH 8.2, 20 mM CaCl2; read-out: Experimentally Determined Ki, Trypsin
T1 construct: from tissue; host or cells: bovine pancreas
T1 sequence (P00760 24-246): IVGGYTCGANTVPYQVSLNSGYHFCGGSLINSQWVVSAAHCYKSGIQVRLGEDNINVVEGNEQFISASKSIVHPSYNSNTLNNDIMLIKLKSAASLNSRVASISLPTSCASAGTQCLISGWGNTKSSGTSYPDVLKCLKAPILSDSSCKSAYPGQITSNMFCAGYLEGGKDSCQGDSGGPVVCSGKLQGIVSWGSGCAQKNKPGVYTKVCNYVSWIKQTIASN
Protocol: (§1) Protease inhibition was assayed according to published procedures with minor modifications using various proteases and specific chromogenic peptide p-nitroanilide substrates. Assays were performed in Costar ultra-low cluster 96-well microtiter plate (Costar Corning Corp., Cambridge Mass.). Each protease was incubated with various concentrations of the test compound for 15 min. at 37° C. or as otherwise indicated, in specific assay buffer, and the residual activity was then measured by addition of the substrate. p-Nitroaniline produced by the proteolysis was determined by measuring the change in absorbance at 405 nm on a SpectraMAX 340 plate reader (Molecular devices, Sunnyvale, Calif.).
(§2) 1. The inhibition constant, Ki is calculated from individual data points using the equation for a tight-binding inhibitor (See Beith, "Proteinase Inhibitors-Proceedings of 2nd Int. Res. Conference", Fritz, et al. eds, New York, p.4463-4469 (1974)):
(§3) vi /vo [((Ki '+[I]+[E]o)^2 -4 [I]o
(§4) [E]o)^1/2 (Ki '+[I]o -[E]o)]/2[E]o
(§5) where Ki ' is apparent inhibition constant; vi and vo are the inhibited and uninhibited rates, respectively; [I]o and [E]o are the total concentrations of inhibitor and enzyme, respectively.
(§6) [note: [E]o is determined by active site titration of enzyme]
(§7) The Ki values are obtained by correcting Ki ' values for the effect of substrate concentration according to: [formula]
(§8) 2. Other inhibition data (Ki >>[E]o), the Ki is calculated from using the equations for a competitive inhibitor: [formula]
Bovine pancreatic Trypsin (TPCK-treated) activity was determined by using N-a-Benzoyl-L-Arg-pNA in 50 mM Tris-HCl, pH 8.2, 20 mM CaCl2 (See Somorin, et al., J. Biochem. 85, 157-162 (1979)).
(§9) The inhibition constant (Ki) of the test compounds against each proteolytic enzyme was determined according to Zitnik et al., Biochem. Biophys. Res. Commun. 232, 687-697 (1997)).

Human plasma thrombin = molecular target: T2, Human plasma thrombin (Homo sapiens, UniProt P00734); experiment: Ki determination, human plasma thrombin (H-D-Phe-Pip-Arg-pNA); conditions: 50 mM Tris-HCl, pH 8.3, 100 mM NaCl, 1% BSA; read-out: Experimentally Determined Ki, Thrombin
T2 construct: from tissue; host or cells: human plasma
Protocol: as §1, §2, §3, §4, §5, §6, §7, §8
Human plasma thrombin activity was determined by using H-D-Phe-Pip-Arg-pNA in 50 mM Tris-HCl, pH 8.3, 100 mM NaCl, 1% BSA (See Lottenberg, et al. Meth. Enzymol. 80, 341-361 (1981)).
as §9

Human plasma kallikrein = molecular target: T3, Human plasma kallikrein (Homo sapiens, UniProt P03952); experiment: Ki determination, human plasma kallikrein (H-D-Prolyl-Phe-Arg-pNA); conditions: 50 mM Tris-HCl, pH 7.8, 200 mM NaCl, 0.05% BSA; read-out: Experimentally Determined Ki, Plasma Kallikrein
T3 construct: from tissue; host or cells: human plasma
T3 sequence (P03952 391-638 limits assumed): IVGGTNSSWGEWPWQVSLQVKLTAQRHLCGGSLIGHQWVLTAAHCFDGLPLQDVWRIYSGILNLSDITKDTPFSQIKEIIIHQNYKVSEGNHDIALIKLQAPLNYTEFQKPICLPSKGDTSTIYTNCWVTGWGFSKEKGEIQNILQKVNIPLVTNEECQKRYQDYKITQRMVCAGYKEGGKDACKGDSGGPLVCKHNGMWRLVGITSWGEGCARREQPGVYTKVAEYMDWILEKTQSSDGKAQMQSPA
T3 sequence (P03952 20-390 partner limits assumed): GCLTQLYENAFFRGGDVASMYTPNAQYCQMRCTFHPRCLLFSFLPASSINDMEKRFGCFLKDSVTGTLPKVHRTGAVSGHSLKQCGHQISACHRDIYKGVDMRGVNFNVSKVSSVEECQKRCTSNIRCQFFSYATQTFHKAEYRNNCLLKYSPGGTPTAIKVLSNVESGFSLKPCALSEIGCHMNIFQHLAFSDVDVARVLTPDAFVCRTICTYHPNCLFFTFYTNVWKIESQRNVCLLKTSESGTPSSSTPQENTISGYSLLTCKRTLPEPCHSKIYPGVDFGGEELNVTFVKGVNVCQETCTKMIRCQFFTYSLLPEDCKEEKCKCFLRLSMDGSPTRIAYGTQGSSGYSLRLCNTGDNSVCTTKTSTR
Protocol: as §1, §2, §3, §4, §5, §6, §7, §8
I. Human Plasma and r-Tissue Kallikrein
Human plasma and r-tissue kallikrein activity were determined in 50 mM Tris-HCl, pH 7.8, 200 mM NaCl, 0.05% BSA by using H-D-Prolyl-Phe-Arg-pNA and DL-Val-Leu-Arg-pNA, respectively (See Lottenberg, et al., Meth. Enzymol. 80, 341-361 (1981)).
as §9

[2] = molecular target: T4, Human Neutrophil Cathepsin G (Homo sapiens, UniProt P08311); experiment: Ki determination, human neutrophil cathepsin G (N-Suc-Ala-Ala-Pro-Phe-pNA); conditions: 625 mM Tris-HCl, pH 7.5, 2.5 mM MgCl2, 0.125% Brij 35; read-out: Experimentally Determined Ki, Cathepsin G
T4 construct: from tissue; host or cells: human neutrophils
T4 sequence (P08311 21-255): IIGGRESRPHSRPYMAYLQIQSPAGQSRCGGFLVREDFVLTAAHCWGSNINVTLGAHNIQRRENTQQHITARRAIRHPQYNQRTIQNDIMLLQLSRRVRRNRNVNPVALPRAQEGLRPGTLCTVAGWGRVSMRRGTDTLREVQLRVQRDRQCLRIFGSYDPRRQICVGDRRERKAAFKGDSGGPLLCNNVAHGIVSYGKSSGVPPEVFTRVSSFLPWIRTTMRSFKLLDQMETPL
Protocol: as §1, §2, §3, §4, §5, §6, §7, §8
Human Neutrophil Cathepsin G activity was determined by using N-Suc-Ala-Ala-Pro-Phe-pNA in 625 mM Tris-HCl, pH 7.5, 2.5 mM MgCl2, 0.125% Brij 35 (See Groutas et al., Arch. Biochem. Biophys. 294, 144-146 (1992)).
as §9

[3] = molecular target: T5, Bovine Pancreatic Chymotrypsin (Bos taurus, UniProt P00766); experiment: Ki determination, bovine pancreatic chymotrypsin (N-Suc-Ala-Ala-Pro-Phe-pNA); conditions: 100 mM Tris-HCl, pH 7.8, 10 mM CaCl2; read-out: Experimentally Determined Ki, Chymotrypsin
T5 construct: from tissue; host or cells: bovine pancreas
Protocol: as §1, §2, §3, §4, §5, §6, §7, §8
Bovine Pancreatic Chymotrypsin activity was determined by using N-Suc-Ala-Ala-Pro-Phe-pNA in 100 mM Tris-HCl, pH 7.8, 10 mM CaCl2 (See Delmar, et al., J. Biochem. 85, 157-162 (1979)).
as §9

Compound | Ki [1] [nM] | Ki (Human plasma thrombin) [µM] | Ki (Human plasma kallikrein) [µM] | Ki [2] [µM] | Ki [3] [µM]
N=C(N)c1cccc(S(=O)(=O)NCc2ccc(OCCCCCCOc3ccc(CNS(=O)(=O)c4cccc(C(=N)N)c4)cc3)cc2)c1 [Example 43, 1,6-Bis-{4-[(3-carbamimidoyl-benzenesulfonylamino)-methyl]-phenoxy}-hexane] | 3600 | > 100 | > 100 | > 100 | 20
N=C(N)c1ccc(S(=O)(=O)NCc2ccc(OCCCOc3ccc(CNS(=O)(=O)c4ccc(C(=N)N)cc4)cc3)cc2)cc1 [Example 50, 1,3-Bis-{4-[(4-carbamimidoyl-benzenesulfonylamino)-methyl]-phenoxy}-propane] | – | > 100 | > 100 | > 100 | 6.3
N=C(N)c1cccc(C(=O)NCc2ccc(OCCCCCCOc3ccc(CNC(=O)c4cccc(C(=N)N)c4)cc3)cc2)c1 [Example 57, 1,6-Bis-{4-[(3-carbamimidoyl-benzenecarbonylamino)-methyl]-phenoxy}-hexane] | 1700 | > 100 | – | > 100 | > 100
N=C(N)c1ccc(C(=O)NCc2ccc(OCC3(COc4ccc(CNC(=O)c5ccc(C(=N)N)cc5)cc4)CCC3)cc2)cc1 [Example 93, 1,1-Bis-{4-[(4-carbamimidoyl-benzoyl-amino)-methyl]-phenoxy-methyl}-cyclobutane] | 1500 | > 100 | 3.9 | > 100 | > 100
N=C(N)c1ccc(C(=O)NCc2ccc(OCCOc3ccc(CNC(=O)c4ccc(C(=N)N)cc4)cc3)cc2)cc1 [Example 64, 1,2-Bis-{4-[(4-carbamimidoyl-benzoylamino)-methyl]-phenoxy}-ethane] | 1400 | > 100 | 7.3 | > 100 | > 100
N=C(N)c1ccc2[nH]c(CC(=O)NCc3ccc(OCCCOc4ccc(CNC(=O)Cc5nc6cc(C(=N)N)ccc6[nH]5)cc4)cc3)nc2c1 [Example 107, 2-(5-Carbamimidoyl-1H-benzoimidazol-2-yl)-N-{4,-[3-(4-{2-(5-carbamimidoyl-1H-benzoimidazol-2-yl)acetylaminol-methyl}-phenoxy)-propoxy]-benzyl}-acetamide] | 4800 | > 100 | 12 | > 100 | 26
N=C(N)c1ccc(C(=O)NCc2ccc(OCCCOc3ccc(CNC(=O)c4ccc(C(=N)N)cc4)cc3)cc2)cc1 [Example 62, 1,3-Bis-{4-[(4-carbamimidoyl-benzoylamino)-methyl]-phenoxy}-propane] | 2400 | > 100 | 2.9 | > 100 | > 100
CN(Cc1ccc(OCCCOc2ccc(CN(C)S(=O)(=O)c3cccc(C(=N)N)c3)cc2)cc1)S(=O)(=O)c1cccc(C(=N)N)c1 [Example 68, 1,3-Bis-{4-[(3-carbamimidoyl-benzenesulfonyl-[N-methyl]-amino)-methyl]-phenoxy}-propane] | 3200 | > 100 | 4.3 | > 100 | > 100
N=C(N)c1cccc(S(=O)(=O)NCc2ccc(COCc3ccc(CNS(=O)(=O)c4cccc(C(=N)N)c4)cc3)cc2)c1 [Example 53, 1,3-Bis-{4-[(3-carbamimidoyl-benzenesulfonylamino)-methyl]-phenyl}-2-oxapropane] | 3000 | > 100 | 8.8 | > 100 | > 100
N=C(N)c1ccc(C(=O)NCc2ccc(OCCCCCOc3ccc(CNC(=O)c4ccc(C(=N)N)cc4)cc3)cc2)cc1 [Example 54, 1,5-Bis-{4-[(4-carbamimidoyl-benzenecarbonylamino)-methyl]-phenoxy}-pentane] | 910 | > 100 | 16 | > 100 | > 100
N=C(N)c1ccc2[nH]c(CC(=O)NCc3ccc(OCCCCCOc4ccc(CNC(=O)Cc5nc6cc(C(=N)N)ccc6[nH]5)cc4)cc3)nc2c1 [Example 108] | 3600 | > 100 | 4.3 | > 100 | > 100
N=C(N)c1cccc(C(=O)NCc2ccc(OCCCCCCCOc3ccc(CNC(=O)c4cccc(C(=N)N)c4)cc3)cc2)c1 [Example 59, 1,7-Bis-{4-[(3-carbamimidoyl-benzenecarbonylamino)-methyl]-phenoxy}-heptane] | 1100 | > 100 | 72 | > 100 | > 100
N=C(N)c1cccc(S(=O)(=O)NCc2ccc(OCCCCOc3ccc(CNS(=O)(=O)c4cccc(C(=N)N)c4)cc3)cc2)c1 [Example 47, 1,4-Bis-{4-[(3-carbamimidoyl-benzenesulfonylamino)-methyl]-phenoxy}-butane] | 1800 | > 100 | 2.5 | > 100 | > 100
N=C(N)c1ccc2sc(C(=O)NCc3ccc(OCCCOc4ccc(CNC(=O)c5cc6cc(C(=N)N)ccc6s5)cc4)cc3)cc2c1 [Example 117, 1,3-Bis-{4-[(5-carbamidoyl-2-benzthiophenyl-carbamido)-methyl]-phenoxy}-propane] | 13000 | > 100 | > 100 | > 100 | 40
N=C(N)c1cccc(C(=O)NCc2ccc(OCCCCOc3ccc(CNC(=O)c4cccc(C(=N)N)c4)cc3)cc2)c1 [Example 61, 1,4-Bis-{4-[(3-carbamimidoyl-benzenecarbonylamino)-methyl]-phenoxy}-butane] | 1200 | > 100 | 7.7 | > 100 | > 100
N=C(N)c1ccc(C(=O)NCc2ccc(OCCCCCCOc3ccc(CNC(=O)c4ccc(C(=N)N)cc4)cc3)cc2)cc1 [Example 56, 1,6-Bis-{4-[(4-carbamimidoyl-benzenecarbonylamino)-methyl]-phenoxy}-hexane] | 1300 | > 100 | – | > 100 | > 100
N=C(N)c1ccc(C(=O)NCc2ccc(COCc3ccc(CNC(=O)c4ccc(C(=N)N)cc4)cc3)cc2)cc1 [Example 66, 1,3-Bis-{4-[(4-carbamimidoyl-benzenecarbonylamino)-methyl]-phenyl}-2-oxapropane] | 510 | > 100 | 0.7 | – | > 100
N=C(N)c1cccc(C(=O)NCc2ccc(OCCCOc3ccc(CNC(=O)c4cccc(C(=N)N)c4)cc3)cc2)c1 [Example 63, 1,3-Bis-{4-[(3-carbamimidoyl-benzoylamino)-methyl]-phenoxy}-propane] | 2400 | > 100 | – | > 100 | > 100

— patent US6221914A, “Sulfonamide bridging compounds that inhibit tryptase activity” (Array Biopharma Inc., priority 1998, dated 2001)
